{
  "source": "patent US20110003321A1",
  "about": "“Monitoring of Intercellular Mitochondorial Polarization” (Kyushu University National University Corporation, priority 2005, published 2011)",
  "format_in_all_cases": "cell-based",
  "key": {"[1]": {"test_system": "Human liver cancer cells HepG-2", "test": "Evaluation of lipid metabolism activity using SPR", "conditions": "25 μM and 50 μM fenofibrate; especially about 20 minutes after the reagent was added; FIG. 2", "description": "Measurement of SPR signals and fluorescent microscopic observation were carried out using a device having a fluorescent microscope located above living cells, which cells are a target of the measurement, and an SPR sensor located under the living cells. […] An optical system of Kretschmann configuration was used as an SPR sensor. BK7 (with a refractive index of 1.51) was used as a prism. A semiconductor laser (with a wavelength of 670 nm, an output of 3 mW, and a beam diameter of 1 mm) was used as a light source. A silicon photodiode detector was used as a detector. The measurement was carried out in the atmosphere (with 20% O2 and 0.035% CO2), unless otherwise stated.\n(§1) Human liver cancer cells HepG-2 were used as test cells. A liquid medium EMEM containing 100 μM nonessential amino acid, 50 units/mL penicillin, 50 μg/mL streptomycin, and 10% (v/v) FBS was prepared, at 37° C. with a CO2 concentration of 5%, to be used as a complete medium, and the cells were pre-cultured in the complete medium and then used in the testing. Fenofibrate (2-[4-(4-Chlorobenzoyl)phenoxy]-2-methylpropanoic acid isopropyl ester) was used as a lipid metabolism promoting agent. Lipid metabolism activity was evaluated at the time when 25 μM fenofibrate was added and at the time when 50 μM fenofibrate was added. […]"}, "[2]": {"test_system": "Human liver cancer cells HepG-2", "test": "Monitoring mitochondrial polarized state using fluorescent reagent JC-1 (HepG-2)", "conditions": "fenofibrate medium; especially about 20 minutes after the reagent was added; FIG. 3", "description": "The fluorescent microscopic observation was carried out with the use of Axioplan 2 (Carl Zeiss) as a microscope, a 75-W xenon lamp as a light source, and NTE/CCD Detector MicroMAX-512BFT (Princeton Instruments) as a detector. Images were obtained and analyzed with the use of fluorescence analysis software, MetaFluor Imaging System Ver. 4.65 (Universal Imaging).\nas §1\nFollowing pre-culture, the test cells were removed from the petri dish, and the concentration of the test cells in the complete medium was adjusted to 2×10^6 cell/mL. […] To detect fluorescence, a set of filters that transmitted 515-565 nm and a set of filters that transmitted 575-640 nm were used. […]"}, "[3]": {"test_system": "Human pancreas cancer cells MIA PaCa-2", "test": "Survival rate by counting the number of cells (trypan blue, standard method), combined use of agents", "conditions": "25 μM each agent; 48 hours after medium replacement; FIG. 12", "description": "The effect of combined use of plural agents was evaluated by a method including co-culturing a test agent with the cells, and counting the number of reduced cells by apoptosis. Human pancreas cancer cells MIA PaCa-2 were used as the test cells. A cell suspension of 5×10^4 cells/mL was prepared with the use of EMEM (Eagles' minimum essential medium) containing 10% (v/v) FBS, 50 units/mL penicillin, 50 μg/mL streptomycin, and 100 μM nonessential amino acid, and 5 mL of the cell suspension was poured into each 6-cm petri dish and pre-cultured at 37° C. with the CO2 concentration of 5%. After 24 hours, either a replacement with new 5 mL EMEM (DMSO used as the solvent of the phenol component was contained at the final concentration of 0.1% (v/v)) containing 25 μM quercetin, 25 μM trans-resveratrol, or both 25 μM quercetin and 25 μM trans-resveratrol in addition to the medium, or a replacement with 5 mL EMEM containing only 0.1% (v/v) DMSO as a control was carried out, and then culturing was carried out. Forty eight hours after the medium was replaced, trypan blue staining was carried out, and then the number of cells was counted with a hemocytometer. Comparison was carried out for the respective conditions, with 100 representing the number of cells in the control."}, "[4]": {"test_system": "Human pancreas cancer cells MIA PaCa-2", "test": "Measurement of SPR angle, agents alone or in combination", "conditions": "25 μM each agent; 50 minutes after the administration; FIG. 13", "description": "SPR angles were measured with the above-described SPR sensor (tilting sensor) at the temperature of 37.0° C. Likewise in the measurement of the survival rate, a cell suspension of 2×10^6 cell/mL was prepared, and 100 μL of the cell suspension was dropped onto a gold plate for SPR measurement and cultured for 20 hours at 37° C. with the CO2 concentration of 5%. After 20 hours, the plate was placed on the prism of the SPR sensor, and on the plate was filled 5 mL EMEM. Then, measurement was started. Ten minutes after the measurement was started, either a replacement with new 5 mL EMEM (DMSO used as the solvent of the phenol component was contained at a final concentration of 0.1% (v/v)) containing 25 μM quercetin, 25 μM trans-resveratrol, or both 25 μM quercetin and 25 μM trans-resveratrol, or a replacement with 5 mL EMEM containing only 0.1% (v/v) DMSO as a control was carried out, and then the measurement of the changes in SPR angle was continued for another 50 minutes."}},
  "data": [
    {"smiles": "CC(C)OC(=O)C(C)(C)Oc1ccc(C(=O)c2ccc(Cl)cc2)cc1", "note": "[fenofibrate, 2-[4-(4-Chlorobenzoyl)phenoxy]-2-methylpropanoic acid isopropyl ester]", "values": [
      {"measurement": "changes in SPR signals resulting from mitochondrial polarization due to activation of lipid metabolism", "setting": "[1]", "result": "changes (−) were observed in the SPR signals"},
      {"measurement": "fluorescence intensity (JC-1) resulting from mitochondrial polarization due to activation of lipid metabolism", "setting": "[2]", "result": "increase in fluorescence intensity"}
    ]},
    {"smiles": "O=c1c(O)c(-c2ccc(O)c(O)c2)oc2cc(O)cc(O)c12", "note": "[quercetin, Quercetin]", "values": [
      {"measurement": "survival rate (number of cells, control = 100)", "setting": "[3]", "result": 76.1, "unit": "%"},
      {"measurement": "change in SPR angle", "setting": "[4]", "result": "approximately 0.05 degrees"}
    ]},
    {"smiles": "Oc1ccc(/C=C/c2cc(O)cc(O)c2)cc1", "note": "[trans-resveratrol]", "values": [
      {"measurement": "survival rate (number of cells, control = 100)", "setting": "[3]", "result": 56.2, "unit": "%"},
      {"measurement": "change in SPR angle", "setting": "[4]", "result": "approximately 0.05 degrees"}
    ]}
  ]
}
